According to US20250296973A1, “TREATMENT METHOD USING MAZDUTIDE” (Innovent Biologics (Suzhou) Co., Ltd., priority 2022, published 2025):
Starred links: 1 amine or outer side, 2 acyl side, 3 side chain; linkers in the order of their positions; H or OH if unused. Non-standard residues stand in square brackets, D forms with d. Groups on a side chain read outwards from the residue. No end group written: not given here. *: point of attachment. C20 diacid = O=C(O)CCCCCCCCCCCCCCCCCCC(=O)*; γGlu = O=C(O)[C@H](CCC(=O)[*:2])N[*:1]; AEEA = NCCOCCOCC(=O)O; Aib = CC(C)(N)C(=O)O

Legend:
[1] = Clinical trial of mazdutide dosing regimen (Example 1, 5 cohorts, overweight or obese subjects); assay type: in vivo, human; conditions: for least squares mean of percent change from baseline in body weight: sc once weekly, after 12 weeks
Description: The contents in the vial were reconstituted in sterile water for injection to give a clear solution of mazdutide.
• 1. Aged 18-75 years (inclusive), male or female. • 2. For obesity, BMI≥28.0 kg/m^2; for overweight, 24≤BMI<28.0 kg/m^2 with at least one of the following: i, increased appetite, intolerable hunger before meals, and increased food consumption; ii, comorbidity with one or more of pre-diabetes (impaired fasting glucose and/or impaired glucose tolerance), hypertension, dyslipidemia, and fatty liver (within 6 months before the screening); iii, comorbidity with weight-bearing joint pain; iv, obesity-related dyspnea or obstructive sleep apnea syndrome. • 3. Weight change <5% after at least 12 weeks of diet/exercise weight control alone at the time of screening.
• 1. Use of any of the following drugs or treatments before the screening: • 1) previous use of either GLP-1 receptor (GLP-1R) agonists or GLP-1R/GCGR agonists; • 2) use of drugs that may have an effect on body weight within 3 months before the screening, including: systemic steroid hormone therapy (intravenous, oral, or intraarticular administration), metformin, SGLT2 inhibitors, thiazolidinediones (TZD), tricyclic antidepressants, psychotropic agents, or sedatives (e.g., imipramine, amitriptyline, mirtazapine, paroxetine, phenelzine, chlorpromazine, thioridazine, clozapine, olanzapine, valproic acid, valproic acid derivatives, and lithium salts), and the like; • 3) use of Chinese herbal medicines or health care products that may have an effect on body weight within 3 months before the screening; • 4) previous or current use of weight-loss drugs within 3 months before the screening, such as: sibutramine hydrochloride, orlistat, phentermine, phenylpropanolamine, mazindol, phentermine, amfepramone, lorcaserin, compounded phentermine/topiramate, compounded […], etc.; • 5) participation in other clinical trials (reception of the test drug treatment) within 3 months before the screening. • 2. […] Alcohol abuse is defined as: over 21 units for men or over 14 units for women weekly on average, or unwillingness to cease drinking within 24 hours before dosing and throughout the study period (one unit=360 mL of beer, or 150 mL of wine, or 45 mL of distilled spirits); • 21) drug abuse and positivity in a urine test for drugs at the time of screening. • 3. Any one of the laboratory tests meets the following criteria (those of proper reasons at the time of screening can be re-examined within one week, and the reason for retesting should be documented by the investigator): • 1) serum calcitonin ≥15 ng/L at the time of screening; • 2) at the time of screening, alanine aminotransferase ≥2.0×ULN and/or aspartate aminotransferase ≥2.0×ULN and/or total bilirubin ≥1.0×ULN and/or alkaline phosphatase ≥2.0×ULN; • 3) glomerular filtration rate eGFR<60 mL/min/1.73 m^2 at the time of screening, as estimated using the CKD-EPI equation; • 4) abnormal thyroid function (FT3, FT4, or TSH) at the time of screening; • 5) fasting triglyceride >5.64 mmol/L (500 mg/dL) at the time of screening: if the patient is receiving a lipid-regulating treatment, the dose of the treatment must be stable for 30 days before the screening; • 6) blood amylase or lipase >2.0×ULN at the time of screening; • 7) an international normalized ratio (INR) of prothrombin time greater than the upper limit of the normal range at the time of screening. • 4. Heart rate <50 beats/min or >90 beats/min as measured by 12-lead electrocardiogram (ECG) at the time of screening. • 5. Clinically significant abnormality in 12-lead ECG at the time of screening: atrioventricular block degree II or degree III, long QT syndrome or QTcF>450 ms (see Attachment 3 for the formula), PR interval <120 ms or PR interval >220 ms, QRS>120 ms, left or right bundle branch block, pre-excitation syndrome or severe arrhythmia requiring treatment in the absence of cardiac pacemaker. • 6. […]

[2] = 3.0-6.0-9.0 mg QW sc, after 24 consecutive weeks

Substance: mazdutide (H[Aib]QGTFTSDYSKYLDEKKAK([AEEA-AEEA-γGlu-C20 diacid])EFVEWLLEGGGPSSG-NH2; N-terminus assumed; SMILES CC(C)C[C@H](NC(=O)[C@H](CC(C)C)NC(=O)[C@H](Cc1c[nH]c2ccccc12)NC(=O)[C@H](CCC(=O)O)NC(=O)[C@@H](NC(=O)[C@H](Cc1ccccc1)NC(=O)[C@H](CCC(=O)O)NC(=O)[C@H](CCCCNC(=O)COCCOCCNC(=O)COCCOCCNC(=O)CC[C@H](NC(=O)CCCCCCCCCCCCCCCCCCC(=O)O)C(=O)O)NC(=O)[C@H](C)NC(=O)[C@H](CCCCN)NC(=O)[C@H](CCCCN)NC(=O)[C@H](CCC(=O)O)NC(=O)[C@H](CC(=O)O)NC(=O)[C@H](CC(C)C)NC(=O)[C@H](Cc1ccc(O)cc1)NC(=O)[C@H](CCCCN)NC(=O)[C@H](CO)NC(=O)[C@H](Cc1ccc(O)cc1)NC(=O)[C@H](CC(=O)O)NC(=O)[C@H](CO)NC(=O)[C@@H](NC(=O)[C@H](Cc1ccccc1)NC(=O)[C@@H](NC(=O)CNC(=O)[C@H](CCC(N)=O)NC(=O)C(C)(C)NC(=O)[C@@H](N)Cc1c[nH]cn1)[C@@H](C)O)[C@@H](C)O)C(C)C)C(=O)N[C@@H](CCC(=O)O)C(=O)NCC(=O)NCC(=O)NCC(=O)N1CCC[C@H]1C(=O)N[C@@H](CO)C(=O)N[C@@H](CO)C(=O)NCC(N)=O)
- subjects with body weight reduced by at least 5% from baseline [2]: 81.7%
- subjects with body weight reduced by at least 10% from baseline [2]: 65.0%
- subjects with body weight reduced by at least 15% from baseline [2]: 31.7%
- subjects with body weight reduced by at least 20% from baseline [2]: 21.7%
- dropout rate of the treatment group (human, in vivo): lower than that of the placebo group overall
- early termination of treatment due to adverse events (human, in vivo): no subject in the treatment group has terminated treatment in advance due to adverse events
- most common treatment emergent adverse events (human, in vivo): gastrointestinal-related adverse events
- serious adverse events (human, in vivo): no serious adverse event has occurred
- TEAEs resulting in permanent drug withdrawal ([1]; all 5 cohorts): no TEAEs resulting in permanent drug withdrawal occurred
- severe TEAEs ([1]; all 5 cohorts): no severe TEAEs were reported
- severe hypoglycemic events ([1]; all 5 cohorts): no severe hypoglycemic events occurred
- severity of treatment emergent adverse events (TEAEs) ([1]; all 5 cohorts): Most treatment emergent adverse events (TEAEs) were mild
- treatment emergent serious adverse events (TESAEs) ([1]; all 5 cohorts): no treatment emergent serious adverse events (TESAEs) occurred
- least squares mean of percent change from baseline in body weight ([1]; cohort 2: 1.5 mg 4 wk + 3.0 mg 4 wk + 4.5 mg 4 wk): −6.40%
- least squares mean of percent change from baseline in body weight ([1]; cohort 3: 2.0 mg 4 wk + 4.0 mg 4 wk + 6.0 mg 4 wk): −6.05%
- least squares mean of percent change from baseline in body weight ([1]; cohort 5: 3.0 mg 4 wk + 6.0 mg 4 wk + 9.0 mg 4 wk): −11.7%
- weight loss effect at week 12 in indirect comparison with similar drugs ([1]; cohort 5 regimen vs 2.4 mg Semaglutide and 10 mg or 15 mg Tirzepatide regimens, FIG. 6): particularly pronounced weight loss effect
- improvement of blood pressure, blood lipid and serum uric acid levels ([1]; different doses in 5 cohorts, FIGS. 3-5 for cohorts 4 and 5): good beneficial effects
